The results in this text go back to ChEMBL document CHEMBL1158551, “Click reaction synthesis of carbohydrate derivatives from ristocetin aglycon with antibacterial and antiviral activity” (Bioorg Med Chem Lett, 2010).

In brackets after ≈: the same amount, converted by molar mass. Where only a bound is given, the exact number is not on record here.

What is called EC50 is the concentration needed to bring the measured effect to its halfway point.

The subject of one assay is Bacillus subtilis. The experiment in a line: Antibacterial activity against Bacillus subtilis ATCC 6633 by broth microdilution method. It counts as functional.
The test system of assay [1] is Staphylococcus aureus. The experiment in a line: Antibacterial activity against methicillin-[…] Staphylococcus aureus ATCC 33591 by broth microdilution method. It counts as functional. Background: Dilution methods test growth across graded concentrations, often in twofold steps.
Assay [2] deals with Staphylococcus aureus. The experiment in a line: Antibacterial activity against methicillin-[…] Staphylococcus aureus ATCC 29213 by broth microdilution method. It counts as functional.
Assay [3] concerns Staphylococcus epidermidis. The experiment in a line: Antibacterial activity against biofilm positive Staphylococcus epidermidis ATCC 35984. It counts as functional.
Assay [4] deals with Staphylococcus epidermidis. The experiment in a line: Antibacterial activity against Staphylococcus epidermidis by broth microdilution method. It counts as functional.
The test system of assay [5] is Enterococcus faecalis. The experiment in a line: Antibacterial activity against vancomycin and teicoplanin-sensitive Enterococcus faecalis ATCC 29212 by broth microdilution method. The class given is functional.
The test system of assay [6] is Enterococcus faecalis. The experiment in a line: Antibacterial activity against vancomycin-resistant and teicoplanin-sensitive Enterococcus faecalis ATCC 5129 expressing VanB gene by broth microdilution method. It counts as functional.
Assay [7] relates to Enterococcus faecalis. The experiment in a line: Antibacterial activity against vancomycin and teicoplanin-resistant Enterococcus faecalis 15376 expressing VanA gene by broth microdilution method. It counts as functional.
In assay [8] the test system is Influenza A virus. The experiment in a line: Antiviral activity against influenza A virus H1N1 assessed as cell viability by cell based MTS assay. The class given is functional, organism-based.
Assay [9] relates to Influenza B virus. The experiment in a line: Antiviral activity against influenza B virus assessed as inhibition of viral induced cytopathic effect. It counts as functional, organism-based. For orientation: Protection from cytopathic effect is a common read-out in antiviral testing.
Assay [10] has as its system Influenza B virus. The experiment in a line: Antiviral activity against influenza B virus assessed as cell viability by cell based MTS assay. It counts as functional, organism-based. (In general: Tetrazolium dyes change colour on reduction, which living cells bring about.)
Assay [11] deals with Influenza A virus. The experiment in a line: Antiviral activity against influenza A virus H1N1 assessed as inhibition of viral induced cytopathic effect. It counts as functional, organism-based.
Assay [12] deals with Influenza A virus. The experiment in a line: Antiviral activity against Influenza A virus H3N2 assessed as inhibition of viral induced cytopathic effect. It counts as functional, organism-based.
Assay [13] deals with Influenza A virus. The experiment in a line: Antiviral activity against Influenza A virus H3N2 assessed as cell viability by cell based MTS assay. It counts as functional, organism-based.

Turning to `Cc1c(O)cc2cc1Oc1cc(ccc1O)[C@@H](N)C(=O)N[C@H]1C(=O)N[C@@H]2C(=O)N[C@H]2C(=O)N[C@H]3C(=O)N[C@H](C(=O)N[C@@H](C(=O)O)c4cc(O)cc(O[C@H]5O[C@H](CO)[C@@H](O)[C@H](O)[C@@H]5O)c4-c4cc3ccc4O)[C@H](O[C@H]3C[C@@H](N)[C@@H](O)[C@H](C)O3)c3ccc(cc3)Oc3cc2cc(c3O[C@H]2O[C@@H](CO[C@H]3O[C@H](C)[C@@H](O)[C@H](O)[C@@H]3O)[C@H](O)[C@@H](O)[C@@H]2O[C@H]2O[C@H](CO)[C@@H](O)[C@H](O)[C@@H]2O[C@H]2O[C@H](CO)[C@@H](O)[C@@H]2O)Oc2ccc(cc2)[C@H]1O` [RISTOCETIN], the MBC was 4 µg/mL (≈ 1.95 µM) in the assay on Bacillus subtilis; 64 µg/mL (≈ 31.2 µM) against Staphylococcus aureus [1]; 64 µg/mL (≈ 31.2 µM) in the assay on Staphylococcus aureus [2]; 64 µg/mL (≈ 31.2 µM) in [3]; 16 µg/mL (≈ 7.79 µM) in [4]; 256 µg/mL (≈ 125 µM) with Enterococcus faecalis [5]. For the same compound, the MBC against Enterococcus faecalis [6] and against Enterococcus faecalis [7] was 256 µg/mL (≈ 125 µM) in each case. For the same compound, the MIC in the assay on Bacillus subtilis stood at 2 µg/mL (≈ 0.974 µM); with Staphylococcus aureus [1], 16 µg/mL (≈ 7.79 µM); in the assay with Staphylococcus aureus [2], 16 µg/mL (≈ 7.79 µM); in [3], 32 µg/mL (≈ 15.6 µM); in assay [4], 16 µg/mL (≈ 7.79 µM); against Enterococcus faecalis [5], 4 µg/mL (≈ 1.95 µM). The MIC in the assay on Enterococcus faecalis [6] and with Enterococcus faecalis [7] was 128 µg/mL (≈ 62.3 µM) throughout.
As for `COC(=O)[C@H]1NC(=O)[C@H]2NC(=O)[C@H](NC(=O)[C@@H]3NC(=O)[C@H]4NC(=O)[C@H](NC(=O)[C@H](n5cc(CO[C@@H]6O[C@@H](C)[C@H](O)[C@@H](O)[C@H]6O)nn5)c5ccc(O)c(c5)Oc5cc4cc(O)c5C)[C@H](O)c4ccc(cc4)Oc4cc3cc(c4O)Oc3ccc(cc3)[C@H]2O)c2ccc(O)c(c2)-c2c(O)cc(O)cc21`, the MBC against Bacillus subtilis came out at 16 µg/mL (≈ 11.4 µM); against Staphylococcus aureus [1] it was 16 µg/mL (≈ 11.4 µM); in the assay with Staphylococcus aureus [2] it was 8 µg/mL (≈ 5.7 µM); in [3] it was 16 µg/mL (≈ 11.4 µM); in assay [4] it was 32 µg/mL (≈ 22.8 µM); in the assay with Enterococcus faecalis [5], 256 µg/mL (≈ 183 µM). The MBC amounted to 128 µg/mL (≈ 91.3 µM) in the assay on Enterococcus faecalis [6] and 256 µg/mL (≈ 183 µM) in the assay on Enterococcus faecalis [7]. Also, the MIC with Bacillus subtilis was found to be 16 µg/mL (≈ 11.4 µM); in the assay with Staphylococcus aureus [1], 8 µg/mL (≈ 5.7 µM); in the assay on Staphylococcus aureus [2], 8 µg/mL (≈ 5.7 µM); in assay [3], 16 µg/mL (≈ 11.4 µM); in assay [4], 16 µg/mL (≈ 11.4 µM); against Enterococcus faecalis [5] it was 32 µg/mL (≈ 22.8 µM). For the same compound, the MIC amounted to 64 µg/mL (≈ 45.6 µM) in the assay with Enterococcus faecalis [6] and 16 µg/mL (≈ 11.4 µM) against Enterococcus faecalis [7].
In the case of `NC(=O)c1ncn([C@@H]2O[C@H](CO)[C@@H](O)[C@H]2O)n1` [RIBAVIRIN], the EC50 with Influenza A virus [8] was 11 µM; in the assay with Influenza B virus [9], 4 µM; in the assay on Influenza B virus [10] it was 4.7 µM.
`COC(=O)[C@H]1NC(=O)[C@H]2NC(=O)[C@H](NC(=O)[C@@H]3NC(=O)[C@H]4NC(=O)[C@H](NC(=O)[C@H](N=[N+]=[N-])c5ccc(O)c(c5)Oc5cc4cc(O)c5C)[C@H](O)c4ccc(cc4)Oc4cc3cc(c4O)Oc3ccc(cc3)[C@H]2O)c2ccc(O)c(c2)-c2c(O)cc(O)cc21` [listing 1 of 2 here]: the MBC in the assay with Bacillus subtilis came to 4 µg/mL (≈ 3.33 µM); against Staphylococcus aureus [1] it was 2 µg/mL (≈ 1.67 µM); against Staphylococcus aureus [2], 2 µg/mL (≈ 1.67 µM); in [3], 64 µg/mL (≈ 53.3 µM); in assay [4], 8 µg/mL (≈ 6.67 µM); in the assay with Enterococcus faecalis [5], 16 µg/mL (≈ 13.3 µM). In addition, the MBC against Enterococcus faecalis [6] turned out to be 128 µg/mL (≈ 107 µM). Also, the MIC was 1 µg/mL (≈ 0.833 µM) against Bacillus subtilis; 1 µg/mL (≈ 0.833 µM) with Staphylococcus aureus [1]; 2 µg/mL (≈ 1.67 µM) in the assay on Staphylococcus aureus [2]; 32 µg/mL (≈ 26.7 µM) in [3]; 4 µg/mL (≈ 3.33 µM) in assay [4]; 8 µg/mL (≈ 6.67 µM) against Enterococcus faecalis [5]. Also, the MIC in the assay with Enterococcus faecalis [6] was 64 µg/mL (≈ 53.3 µM); against Enterococcus faecalis [7] it was more than 256 µg/mL.
In the case of `COC(=O)[C@H]1NC(=O)[C@H]2NC(=O)[C@H](NC(=O)[C@@H]3NC(=O)[C@H]4NC(=O)[C@H](NC(=O)[C@H](N=[N+]=[N-])c5ccc(O)c(c5)Oc5cc4cc(O)c5C)[C@H](O)c4ccc(cc4)Oc4cc3cc(c4O)Oc3ccc(cc3)[C@H]2O)c2ccc(O)c(c2)-c2c(O)cc(O)cc21` [listing 2 of 2 here], the EC50 with Influenza A virus [11] was 9.5 µM; in the assay with Influenza A virus [12], not below 20 µM; with Influenza A virus [13], not below 9 µM; with Influenza B virus [9], more than 100 µM; with Influenza B virus [10], more than 100 µM.
